The results in this text go back to patent publication US9790189B2, “Disubstituted 5-fluoro pyrimidine derivatives containing a sulfondiimine group” (Bayer Pharma Aktiengesellschaft, priority 2014, dated 2017).

Each structure is given as a SMILES string. Values after ≈ are worked out from the molar mass of the structure shown.

Series [1] deals with T1, CDK2/CycE (Homo sapiens, UniProt P24941). The series can be described thus: CDK2/CycE high ATP kinase assay (TR-FRET, Method 2b).
Series [2] concerns the target T1, CDK2/CycE. The series can be described thus: CDK2/CycE kinase assay (TR-FRET, Method 2a).
In the next series the test system is DU145 cells. The series can be described thus: Proliferation assay, DU145 (crystal violet). In kind it is cell-based. As to conditions: Homo sapiens, DU-145, 96 h; DU145, 4 days; read-out: Inhibition of DU145 cell proliferation IC50. The method, then:
(§1) Cultivated tumour cells (HeLa, human cervical tumour cells, ATCC CCL-2; NCI-H460, human non-small cell lung carcinoma cells, ATCC HTB-177; A2780, human ovarian carcinoma cells, ECACC #93112519; DU 145, hormone-independent human prostate carcinoma cells, ATCC HTB-81; HeLa-MaTu-ADR, multidrug-resistant human cervical carcinoma cells, EPO-GmbH Berlin; Caco-2, human colorectal carcinoma cells, ATCC HTB-37; B16F10, mouse melanoma cells, ATCC CRL-6475) were plated at a density of 5,000 cells/well (DU145, HeLa-MaTu-ADR), 3,000 cells/well (NCI-H460, HeLa), 2,500 cells/well (A2780), 1,500 cells/well (Caco-2), or 1,000 cells/well (B16F10) in a 96-well multititer plate in 200 μL of their respective growth medium supplemented 10% fetal calf serum. After 24 hours, the cells of one plate (zero-point plate) were stained with crystal violet (see below), while the medium of the other plates was replaced by fresh culture medium (200 μl), to which the test substances were added in various concentrations (0 μM, as well as in the range of 0.001-10 μM; the final concentration of the solvent dimethyl sulfoxide was 0.5%). The cells were incubated for 4 days in the presence of test substances. Cell proliferation was determined by staining the cells with crystal violet: the cells were fixed by adding 20 μl/measuring point of an 11% glutaric aldehyde solution for 15 minutes at room temperature. After three washing cycles of the fixed cells with water, the plates were dried at room temperature. The cells were stained by adding 100 μl/measuring point of a 0.1% crystal violet solution (pH 3.0). After three washing cycles of the stained cells with water, the plates were dried at room temperature. The dye was dissolved by adding 100 μl/measuring point of a 10% acetic acid solution. The extinction was determined by photometry at a wavelength of 595 nm. The change of cell number, in percent, was calculated by normalization of the measured values to the extinction values of the zero-point plate (=0%) and the extinction of the untreated (0 μm) cells (=100%).

The next series relates to Caco-2 cells. Kind of series: Proliferation assay, Caco-2 (crystal violet). It is filed as cell-based. As to conditions: Homo sapiens, 96 h; Caco-2, 4 days; read-out: Inhibition of Caco-2 cell proliferation IC50. The method, then: as §1
The nature of series [3]: Equilibrium shake flask solubility, high throughput from DMSO solution (Method 4a). It is filed as physicochemical. As to conditions: phosphate buffer pH 6.5 with 1% DMSO, aqueous buffer, phosphate buffer pH 6.5, 24 hrs, room temperature. An excerpt:
4. Equilibrium Shake Flask Solubility Assays:
4a) High Throughput Determination of Aqueous Drug Solubility (100 mmolar in DMSO)
The high throughput screening method to determine aqueous drug solubility is based on:
Thomas Onofrey and Greg Kazan, Performance and correlation of a 96-well high throughput screening method to determine aqueous drug solubility, http://www.millipore.com/publications.nsf/a73664f9f981af8c852569b9005b4eee/e565516fb76e7435852 56da30052db77/$FILE/AN1731EN00.pdf
The assay was run in a 96-well plate format. Each well was filled with an individual compound.
All pipetting steps were performed using a robot platform.
100 μl of a 10 mmolar solution of drug in DMSO were concentrated by vacuum centrifugation and resolved in 10 μl DMSO. 990 μl phosphate buffer pH 6.5 were added. The content of DMSO amounts to 1%. The multititer plate was put on a shaker and mixed for 24 hrs at room temperature. 150 μl of the suspension were transferred to a filtration plate. After filtration using a vacuum manifold the filtrate was diluted 1:400 and 1:8000. A second microtiter plate with 20 μl of a 10 mM solution of drug in DMSO served for calibration. Two concentrations (0.005 μM and 0.0025 μM) were prepared by dilution in DMSO/water 1:1 and used for calibration. Filtrate and calibration plates were quantified by HPLC-MS/MS.
Preparation of 0.1 m Phosphate Buffer pH 6.5:
61.86 g NaCl and 39.54 mg KH2PO4 were solved in water and filled up to […]. The mixture was diluted 1:10 with water and the pH adjusted to 6.5 by NaOH.
Materials: • Millipore MultiScreenHTS-HV Plate 0.45 μm
Chromatographic conditions were as follows: • HPLC column: Ascentis Express C18 2.7 μm 4.6×30 mm • Injection volume: 1 μl • Flow: 1.5 ml/min • Mobile phase: acidic gradient • A: Water/0.05% HCOOH • B: Acetonitrile/0.05% HCOOH • 0 min→95% A 5% B • 0.75 min→5% A 95% B • 2.75 min→5% A 95% B • 2.76 min→95% A 5% B • 3 min→95% A 5% B
The areas of sample- and calibration injections were determined by using mass spectromety software (AB SCIEX: Discovery Quant 2.1.3. and Analyst 1.6.1). The calculation of the solubility value (in mg/l) was executed by an inhouse developed Excel macro.

A further series relates to NCI-H460 cells. Kind of series: Proliferation assay, NCI-H460 (crystal violet). In kind it is cell-based. As to conditions: Homo sapiens, 96 h; NCI-H460, 4 days; read-out: Inhibition of NCI-H460 cell proliferation IC50. On the procedure:
as §1

A further series concerns A2780 cells. The series can be described thus: Proliferation assay, A2780 (crystal violet). It is filed as cell-based. As to conditions: Homo sapiens, 96 h; A2780, 4 days; read-out: Inhibition of A2780 cell proliferation IC50. On the procedure:
as §1

In another series the test system is B16F10 cells. Kind of series: Proliferation assay, B16F10 (crystal violet). It is filed as cell-based. The settings on record: Mus musculus, B16-F10, 96 h; B16F10, 4 days; read-out: Inhibition of B16F10 cell proliferation IC50. The method, then: as §1
A further series has as its system HeLa cells. Kind of series: Proliferation assay, HeLa (crystal violet). In kind it is cell-based. The settings on record: Homo sapiens, 96 h, 4 days, read-out: Inhibition of HeLa cell proliferation IC50. On the procedure: as §1
For another series, the system named is HeLa-MaTu-ADR cells. Kind of series: Proliferation assay, HeLa-MaTu-ADR (crystal violet). It is filed as cell-based. As to conditions: Homo sapiens, 96 h, 4 days, read-out: Inhibition of HeLa-MaTu-ADR cell proliferation IC50. The method, then: as §1
Series [4] in a line: Caco-2 permeation assay (Method 5). It is filed as in vitro ADME. The settings on record: human, pH 7.2, Caco-2, 2 μM test compound, 2 h; for Papp A→B at 2 h, 2 µM: read-out: Papp A−B (Mari); for Papp B→A at 2 h, 2 µM: read-out: Papp B−A (Mari). For orientation: Caco-2 cells form a polarised layer with tight junctions and transporters.
Description: Cells were maintained at 37° C. in a humidified 5% CO2 atmosphere. Medium was changed every 2-3 day. Before running the permeation assay, the culture medium was replaced by a FCS-free hepes-carbonate transport buffer (pH 7.2). For assessment of monolayer integrity the transepithelial electrical resistance (TEER) was measured. Test compounds were predissolved in DMSO and added either to the apical or basolateral compartment in final concentration of 2 μM in transport buffer. Before and after 2 h incubation at 37° C. samples were taken from both compartments. Analysis of compound content was done after precipitation with methanol by LC/MS/MS analysis. Permeability (Papp) was calculated in the apical to basolateral (A→B) and basolateral to apical (B→A) directions. […] The efflux ratio basolateral (B) to apical (A) was calculated by dividing the Papp B−A by the Papp A−B. In addition the compound recovery was calculated.
A further series has as its system MOLM-13 cells. Kind of series: Proliferation assay, MOLM-13 (Cell Titre-Glo). It is filed as cell-based. As to conditions: Homo sapiens; MOLM-13, 72-hour exposure; read-out: Inhibition of MOLM-13 cell proliferation IC50. The method, then:
Non-adherent MOLM-13 human acute myeloid leukemia cells (DSMZ ACC 554) were seeded at a density of 5,000 cells/well in a 96-well multititer plate in 100 μL of growth medium supplemented 10% fetal calf serum. After 24 hours, cell viability of one plate (zero-point plate) was determined with the Cell Titre-Glo Luminescent Cell Viability Assay (Promega), while 50 μL of test compound containing medium was added to the wells of the other plates (final concentrations in the range of 0.001-10 μM and DMSO controls; the final concentration of the solvent dimethyl sulfoxide was 0.5%). Cell viability was assessed after 72-hour exposure with the Cell Titre-Glo Luminescent Cell Viability Assay (Promega).

Regarding `CN=S(C)(=N)Cc1cc(F)cc(Nc2ncc(F)c(-c3ccc(F)cc3OC)n2)c1` (racemic) [Example 2, (rac)-N-{3-[(N,S-Dimethylsulfonodiimidoyl)methyl]-5-fluorophenyl}-5-fluoro-4-(4-fluoro-2-methoxyphenyl)pyrimidin-2-amine], the IC50 against CDK2/CycE [1] turned out to be 13000 nM; against CDK2/CycE [2] it was 1300 nM; in the series with DU145 cells, 636 nM; with Caco-2 cells it was 849 nM; in the series on NCI-H460 cells, 968 nM; in the series with A2780 cells, 333 nM. In addition, the IC50 with B16F10 cells was 1120 nM; in the series on HeLa cells, 412 nM; in the series with HeLa-MaTu-ADR cells it was 793 nM. Besides, the solubility (thermodynamic) (commonly the concentration in solution at equilibrium with solid) at 24 h in [3] was found to be 97 µg/mL (≈ 223 µM).
`COc1cc(F)ccc1-c1nc(Nc2cc(F)cc(CS(C)(=N)=Nc3ccccc3)c2)ncc1F` (racemic) [Example 3, (rac)-5-Fluoro-4-(4-fluoro-2-methoxyphenyl)-N-{3-fluoro-5-[(S-methyl-N-phenylsulfonodiimidoyl)methyl]phenyl}pyrimidin-2-amine]: the IC50 worked out at 1400 nM against CDK2/CycE [2]; 1050 nM in the series on DU145 cells; 1000 nM in the series with Caco-2 cells; 1090 nM in the series on NCI-H460 cells; 548 nM with A2780 cells; 1270 nM with B16F10 cells. For the same molecule, the IC50 in the series with HeLa cells is 991 nM; with HeLa-MaTu-ADR cells it was 863 nM. This molecule showed a thermodynamic solubility at 24 h in [3] of 1.4 µg/mL (≈ 2.81 µM).
For the molecule `C#CCN=S(C)(=N)Cc1cc(F)cc(Nc2ncc(F)c(-c3ccc(F)cc3OC)n2)c1` (racemic) [Example 4, (rac)-5-Fluoro-4-(4-fluoro-2-methoxyphenyl)-N-(3-fluoro-5-{[S-methyl-N-(prop-2-yn-1-yl)sulfonodiimidoyl]methyl}phenyl)pyrimidin-2-amine], the IC50 at CDK2/CycE [1] worked out at 4290 nM; against CDK2/CycE [2], 580 nM; in the series on DU145 cells, 581 nM; with Caco-2 cells, 847 nM; with NCI-H460 cells it was 935 nM; with A2780 cells, 355 nM. Besides, the figures for the IC50 in the series on B16F10 cells, with HeLa cells and in the series on HeLa-MaTu-ADR cells were 1130 nM, 535 nM and 696 nM, respectively.
On to `COc1cc(F)ccc1-c1nc(Nc2cc(F)cc(CS(C)(=N)=NC#N)c2)ncc1F` (racemic) [Example 5, (rac)-[(3-Fluoro-5-{[5-fluoro-4-(4-fluoro-2-methoxyphenyl)pyrimidin-2-yl]amino}benzyl)(imino)methyl-λ^6-sulfanylidene]cyanamide], for which the IC50 was 1470 nM at CDK2/CycE [1]; 190 nM at CDK2/CycE [2]; 42 nM with DU145 cells; 94 nM in the series with Caco-2 cells; 193 nM in the series on NCI-H460 cells; 35 nM in the series with A2780 cells. In addition, the IC50 with B16F10 cells is 122 nM; in the series with HeLa cells, 73 nM; with HeLa-MaTu-ADR cells, 80 nM. Besides, in series [4], the Papp A→B (commonly the apparent permeability from the apical to the basolateral side of a cell layer) at 2 h, 2 µM is 2.88 ×10⁻⁶ cm/s. Also, the Papp B→A (as a rule, the apparent permeability from the basolateral to the apical side of a cell layer) at 2 h, 2 µM in [4] stood at 19.9 ×10⁻⁶ cm/s.
Take `COc1cc(F)ccc1-c1nc(Nc2cc(F)cc(CS(C)(=N)=NCCCO)c2)ncc1F` (racemic) [Example 6, (rac)-3-{[(3-Fluoro-5-{[5-fluoro-4-(4-fluoro-2-methoxyphenyl)pyrimidin-2-yl]amino}benzyl)(imino)methyl-λ^6-sulfanylidene]amino}propan-1-ol]: the IC50 at CDK2/CycE [1] was 19800 nM; at CDK2/CycE [2], 970 nM; with HeLa cells, 507 nM. The same molecule displayed a solubility (thermodynamic) at 24 h in series [3] of 259 µg/mL (≈ 540 µM).
As for `COc1cc(F)ccc1-c1nc(Nc2cc(CS(C)(=N)=N)cc(S(F)(F)(F)(F)F)c2)ncc1F` [Example 8, 5-Fluoro-4-(4-fluoro-2-methoxyphenyl)-N-{3-[(S-methylsulfonodiimidoyl)methyl]-5-(pentafluoro-λ^6-sulfanyl)phenyl}pyrimidin-2-amine], the IC50 against CDK2/CycE [1] is 2990 nM; against CDK2/CycE [2], 400 nM; with DU145 cells, 130 nM; in the series with Caco-2 cells, 144 nM; with NCI-H460 cells, 149 nM; with MOLM-13 cells, 36 nM. Further, the IC50 turned out to be 237 nM with B16F10 cells, 104 nM with HeLa cells and 194 nM in the series on HeLa-MaTu-ADR cells. Moreover, the thermodynamic solubility at 24 h in series [3] was 2.2 µg/mL (≈ 4.15 µM). In addition, the Papp A→B at 2 h, 2 µM in [4] is 3.33 ×10⁻⁶ cm/s. For the same molecule, the Papp B→A at 2 h, 2 µM in series [4] turned out to be 5.19 ×10⁻⁶ cm/s.
